Measured values: patent US9603869B2, “Lithium co-crystals and an additional neuropsychiatric agent for treatment of neuropsychiatric disorders” (UNIVERSITY OF SOUTH FLORIDA, priority 2015, dated 2017)
Like-named read-outs stand apart in the source and are kept apart here.

Assays:
N2a cells = experiment: Neuronal cell differentiation of N2a cells (β-tubulin III, phospho-synapsin I); type: cell-based, mouse; settings: 10 mM, 24 hours
Experimental: FIGS. 5A-5C. […] These cells were then permeabilized with 0.05% Triton X-100 for 5 minutes, washed and stained with mouse anti-β-tubulin III monoclonal antibody ([…]™) and rabbit anti-phospho-Synapsin I (Ser^62, Ser^67) polyclonal antibody (EMD Millipore) overnight at 4° C. […] Confocal images were taken by Olympus fluoview FV1000 laser scanning confocal microscope (Tokyo, Japan).
These cells were then permeabilized with 0.05% Triton X-100 for 5 min, washed, and stained with mouse anti-β-tubulin III monoclonal antibody ([…]™) and rabbit anti-phospho-synapsin I (Ser^62, Ser^67) polyclonal antibody (EMD Millipore) overnight at 4° C. […] Confocal images were taken by Olympus Fluoview™ FV1000 laser scanning confocal microscope (Tokyo, Japan) (FIG. 5A).

[1] = system: Human neural stem cells (H9-Derived); experiment: Human neuronal stem cell differentiation (MAP2, GFAP); type: cell-based; settings: 10 mM, 14 days
From the text: Human neural stem cells (H9-Derived) were obtained from Life technologies and cultured with StemPro® NSC SFM media. […] DAPI was used to detect nuclear DNA. Confocal images were taken by Olympus Fluoview™ FV1000 laser scanning confocal microscope (FIG. 18A).

[2] = system: β-amyloid pathology in Tg2576 mice; settings: diet 8 weeks, lithium 2.25 mmol/kg/day, Li2CO3 vs control NIH31 diet
Experimental: All mice received normal drinking water ad libitum. […] Mouse brain tissue sections and homogenates were prepared from each mouse after treatment. Half-brain coronal sections were analyzed by Aβ antibody 4G8 staining (FIG. 14A). Percentage of 4G8 positive plaques (mean±SD) was quantified by image analysis (28, 29) (FIG. 14B). Total soluble and insoluble Aβ40,42 peptides from homogenates were analyzed by ELISA, and represented as picograms of Aβ peptides per mg of total protein (FIG. 14C).

cytokines and sCD40L = settings: Tg2576 mice, oral, diet 8 weeks, 2.25 mmol/kg/day
From the text: In addition, spleens from these mice were isolated and splenocytes cultured as described previously (30).

[3] = system: Mouse primary microglial cells; experiment: Autophagy (LC3B staining) in mouse primary microglial cells; type: cell-based; settings: 10 mM, 18 hours
From the text: FIG. 8. […] The fluorescence intensity of the autophagosomes and the cytosol were quantified using SLIDEBOOK™ digital microscopy software.
The fluorescence intensity of the autophagosomes and the cytosol were quantified using Slidebook™ digital microscopy software (mean±SD) (FIG. 19).

Aβ40,42 peptides = settings: N2a/APPwt cells, LISPRO 0, 2.5, 5 and 10 mM, 12 h
From the text: (§1) FIGS. 1A and 1B. […] The cell lysates were routinely prepared from these cells for Western blot (WB) analysis.

Notch processing = settings: N2a/APPwt/Notch-ΔE cells, 0, 2.5, 5 and 10 mM, 5 hours, compared to DFK-167
From the text: as §1

GSK3β [4] = settings: 12 hours
Experimental: FIGS. 2A and 2B. […] Cell lysates were prepared and subjected to WB analysis with specific anti-phospho-GSK3β (Ser9) and total GSK3β antibodies. […] WB results are representative of three independent experiments.
WB results are representative of three independent experiments.

3XTg-AD mice = settings: chow 4 months
From the text: In order to reduce potential lithium toxicity in the kidney, a saline bottle will be provided in addition to water in all cages. Behavior of animals in these groups and in non-transgenic untreated wild-type mice will be evaluated after treatment, with a established behavioral battery which measures multiple cognitive domains, including open field, novel object recognition, radial arm water maze, and contextual and cued fear conditioning (42-46).
The behavioral battery will include the Balance Beam Task, to evaluate vestibular and general motor function and account for any problems that may occur with the rest of the tests due to motor (and not behavioral/cognitive) impairment.

primary microglial cells = system: primary microglial cells
Experimental: FIGS. 4A-4C. […] Data are represented as mean percentage of CD40 expressing cells (±SD). […] Microglial cell culture supernatants were collected and subjected to cytokine ELISA as indicated. Data were represented as mean pg of TNFα or IL-12p70 per mg of total cellular protein (±SD). […] Cellular supernatants and lysates were analyzed for extracellular (top panel) and cell-associated (bottom panel) FITC-Aβ42 using a fluorometer. Data are represented as the relative fold of mean fluorescence change (mean±SD), calculated as the mean fluorescence for each sample at 37° C. divided by mean fluorescence at 4° C.
Data are represented as mean percentage of CD40-expressing cells (±SD) (FIG. 4A). […] Microglial cell culture supernatants were collected and subjected to cytokine ELISA as indicated. Data are represented as mean pg of TNFα or IL-12p70 per mg of total cellular protein (±SD) (FIG. 4B). […] Cellular supernatants and lysates were analyzed for extracellular (top panel) and cell-associated (bottom panel) FITC-Aβ42 using a fluorometer (FIG. 4C). Data are represented as the relative fold of mean fluorescence change (mean±SD), calculated as the mean fluorescence for each sample at 37° C. divided by mean fluorescence at 4° C.

[5] = system: primary microglia isolated from 3XTg-AD mice; settings: microglia from older 3XTg-AD mice treated at minimum dose, vs Li2CO3 or control diet
From the text: The inventors will fully examine microglial pro-inflammatory MAPK, NF-kB and CD40 signaling pathways, cytokine secretion, Aβ phagocytosis capacity, markers of M1 or M2 phenotype and microglial autophagy (IMPase) ex vivo via immunohistochemistry, WB, RT-PCR and Flow analysis in primary microglia isolated from these mice. These methods and assays have been well established as previously published (56, 73, 75). The culturing of primary microglial cells from young and aged mice has been routinely conducted (28, 29, 73).

GSK3β [6] = experiment: GSK3β phosphorylation Western blot in human renal proximal tubule (HRPT) cells; type: cell-based; settings: 0 to 30 mM, 12 hours
[7] = system: Murine neuronal stem cells; experiment: Murine neuronal stem cell differentiation (MAP2, total tau, phospho-synapsin I); type: cell-based, mouse; settings: 10 mM, 4 days
Experimental: FIGS. 6A-6F. […] These cells were then permeabilized, washed and stained with mouse anti-MAP2 monoclonal antibody (EMD Millipore) or mouse anti-total tau (tau46) antibody overnight at 4° C. […] Confocal images were taken by Olympus fluoview FV1000 laser scanning confocal microscope. […] DAPI staining (Life Technologies) was used to detect nuclear DNA. Confocal images were taken by Olympus Fluoview™ FV1000 laser scanning confocal microscope (FIG. 17A). […] The band density ratios of MAP2 to β-actin, total tau to β-actin, and phospho-synapsin I to β-actin are presented as mean±S.D (FIGS. 17B-1, 17B-2, and 17B-3, respectively).

Lithium Salicylate Proline [LISPRO]
neuronal cell differentiation (β-tubulin III, phospho-synapsin I) (N2a cells): Markedly Promotes Neuronal Cell Differentiation | human neuronal stem cell differentiation (MAP2, GFAP) [1]: Enhances Human Neuronal Stem Cell Differentiation | β-amyloid pathology (4G8 positive Aβ plaques in brain sections) [2]: Reduces β-Amyloid Pathology | anti-inflammatory/Th2 responses (cytokine ELISA) (cytokines and sCD40L): Promotes Anti-Inflammatory/Th2 Responses | sCD40L in the CNS (brain homogenate ELISA) (cytokines and sCD40L): Decreases sCD40L | difference in fluorescence intensity of autophagosomes and cytosol versus Li2CO3 ([3]; P>0.05): no significance difference | autophagy (LC3B fluorescence intensity of autophagosomes and cytosol) ([3]; vs PBS control): significant enhancement of autophagy | Aβ40, Aβ42 peptides secreted in cell culture media (Aβ generation) (Aβ40,42 peptides): reduces Aβ generation | Notch cleavage (WB, c-myc and cleaved Notch antibodies) (Notch processing): did not inhibit Notch cleavage | phosphorylated GSK3β (Ser9) level (WB) (GSK3β [4]; SH-SY5Y cells): notably elevated | phosphorylated GSK3β (Ser9) level (WB) (GSK3β [4]; primary neuronal cells): notably elevated | effectiveness on abolishing AD-like cognitive impairment (3XTg-AD mice): more effective than equimolar doses of Li2CO3 | long-term and short-term memory impairment (behavioral battery) (3XTg-AD mice; prophylactic and therapeutic groups): will reverse or abolish long-term and short-term memory impairment | microglial phagocytosis of Aβ (FITC-Aβ42, extracellular and cell-associated) (primary microglial cells; 10 mM pre-treatment 6 hours, 1 μM aged FITC-Aβ42 1 hour): Enhances Microglial Phagocytosis of Aβ | IFNγ-induced CD40 expression (FACS, percentage of CD40-expressing cells) (primary microglial cells; 8 hours co-treatment): significant dose-dependent decreases | pro-inflammatory microglial activation induced by IFNγ and CD40 signaling (FACS, TNFα and IL-12p70 ELISA) (primary microglial cells; IFNγ or/and CD40L 1 μg/mL, 8 hours): Inhibits Microglial Activation-Induced by IFNγ and CD40 Signaling | microglial M2 phenotype ex vivo [5]: will strongly preserve an M2 phenotype | GSK3β activity / GSK3β (Ser9) phosphorylation (WB) (GSK3β [6]): Markedly Reduces GSK3β Activity | murine neuronal stem cell differentiation (MAP2, total tau, phospho-synapsin I) [7]: Enhances Murine Neuronal Stem Cell Differentiation
